From publication PMC10947113, “A Bivalent Activatable Fluorescent Probe for Screening and Intravital Imaging of Chemotherapy‐Induced Cancer Cell Death” (Angewandte Chemie (Weinheim an Der Bergstrasse, Germany), 2021)
Like-named read-outs stand apart in the source and are kept apart here.

B1: Annexin V‐AF647: a 36 kDa protein marker of PtdSer in the presence of Ca2+ ions (protein, UniProt P08758 2-320, looked up)
Annexin A5: AQVLRGTVTDFPGFDERADAETLRKAMKGLGTDEESILTLLTSRSNAQRQEISAAFKTLFGRDLLDDLKSELTGKFEKLIVALMKPSRLYDAYELKHALKGAGTNEKVLTEIIASRTPEELRAIKQVYEEEYGSSLEDDVVGDTSGYYQRMLVVLLQANRDPDAGIDEAQVEQDAQALFQAGELKWGTDEEKFITIFGTRSVSHLRKVFDKYMTISGFQIEETIDRETSGNLEQLLLAVVKSIRSIPAYLAETLYYAMKGAGTDDHTLIRVMVSRSEIDLFNIRKEFRKNFATSLYSMIKGDTSGDYKKALLLLCGEDD
modifications: Alexa Fluor 647 label
notes: a 36 kDa protein marker of PtdSer in the presence of Ca2+ ions

Columns and labels:
[1] = test system: 8 cancer cell lines; test: Classification of drugs by Apotracker Red (apoptosis) and CellTrace Violet (proliferation) staining; assay type: cell-based; settings: for effect on cell proliferation (CellTrace Violet): Figure S8
Protocol: (§1) To corroborate the versatility of Apotracker Red, we built a screening platform including a total of 8 cancer cell lines of variable origin and pathogenesis: breast (MCF7, MDA‐MB231 and MMTV‐PyMT (mouse mammary tumour virus‐polyoma middle tumour‐antigen)[23]), lung (A549), prostate (PC3 and LnCap), blood cells (Jurkat) and colon (HT29). All cell lines were cultured under standard conditions and seeded with the fluorescent proliferation marker CellTrace^TM Violet (CV) in 96‐well plates (10–20×10^3 cells/well) for high‐throughput flow cytometry. After drug treatment (i.e., drug addition plus 24 h incubation), Apotracker Red was incubated for 10 min and fluorescence readings were directly acquired without any additional processing steps (Figure 3 a). […] Using this platform, we tested a collection of FDA‐approved drugs in all cancer cell lines and compared their ability to induce apoptosis using Apotracker Red as the reporter. Specifically, we included DNA alkylation agents (e.g., cyclophosphamide, cisplatin, 5‐fluorouracil, gemcitabine, temozolomide), proteasomal and mitotic inhibitors (e.g., bortezomib, docetaxel, paclitaxel) and antagonists of specific proteins (e.g., dexamethasone, tamoxifen; Figure 3 b).
(§2) First, all drugs were tested in the 8 different cell lines to determine the percentages of Apotracker Red‐stained apoptotic cells compared to no treatment (Figure 3 c; Figure S8). […] All 5 drugs were tested at multiple concentrations (from 1 to 100 μM) and with incubation times up to 48 h to examine whether drugs could block cell proliferation at late stages (Figures S9–S13).
Figure S8. Heatmap of relative inhibition of cell proliferation (as indicated by staining of CellTraceTM Violet) after treatment of cancer cell lines with different drugs. Data presented as an average of 3 independent experiments. Cells were stained on day 0 with CellTraceTM Violet (1 µM) and mean fluorescence intensities were determined on the 5L LSR after 24 h of treatment with the different drugs. […]
Cell culture. MCF-7, A549, LnCap, MDA-MB-231, Jurkat T cells and PC3 cells were obtained from American Type Culture Collection (ATCC). HT29 cells were purchased from Merck (S i g m a Aldrich, UK). Mouse Mammary Tumour Virus –Polyoma Middle T antigen (MMTV -PyMT) cells were provided by the lab of Mikala Egeblad (CSHL, US). MMTV-PyMT, MCF-7, LnCap, MDA-MB-231 and Jurkat T cells were cultured in Roswell Park Memorial Institute (RPMI) 1640 Medium supplemented with 10% fetal bovine serum (FBS) , 100 U mL-1 penicillin and 0.1 mg mL-1 streptomycin. A549 and PC3 cells were cultured in Dublecco’s modified Eagle’s medium (DMEM) supplemented with 10% fetal bovine serum (FBS), 100 U mL-1 penicillin and 0.1 mg […]
Flow cytometry drug screen.

[2] = test system: MDA-MB231 cells; test: Apotracker Red flow cytometry drug screen, MDA-MB231; assay type: cell-based, human; settings: 1 to 100 μM, 48 h, Apotracker Red 150 nM, 3 independent experiments
Protocol: as §1, with “cytometry.” for “cytometry. After drug treatment (i.e., drug addition plus 24 h incubation), Apotracker Red was incubated for 10 min and fluorescence readings were directly acquired without any additional processing steps (Figure 3 a).”
Edinburgh. Human peripheral blood neutrophils were isolated as previously described.[3] Briefly, whole blood was drawn into tubes containing anti -coagulant 3.6% sodium citrate (final concentration: 0.4% (w/v)) and centrifuged at 350 g for 20 min at r.t. with lowest acceleration and no brake. Platelet-rich plasma was rem oved, and leukocytes separated from erythrocytes by 0.6% dextran sedimentation in saline for 30 min at r.t. The upper layer was further fractionated using an isotonic discontinuous Percoll density gradient. Neutrophils were harvested from the 63% and 72.9% interface and cultured in Iscove’s Modified Dulbecco’s Medium (IMDM, Gibco) in 5% h um an A B se rum fo r 1 8 h at 37°C, 5% CO2 to in du ce spontaneous […]
Cell culture. MCF-7, A549, LnCap, MDA-MB-231, Jurkat T cells and PC3 cells were obtained from American Type Culture Collection (ATCC). HT29 cells were purchased from Merck (S i g m a Aldrich, UK). Mouse Mammary Tumour Virus –Polyoma Middle T antigen (MMTV -PyMT) cells were provided by the lab of Mikala Egeblad (CSHL, US). […]

[3] = test system: breast cancer cells (MMTV-PyMT, MDA-MB231, MCF7); test: Dose-dependency study in breast cancer cell lines; assay type: cell-based, mouse and human; settings: 1 to 100 μM, 48 h, Apotracker Red 150 nM, 3 independent experiments
Protocol: as §2, with “S8). […] From this screen, we decided to select 5 drugs with potent pro‐apoptotic response in breast cancer, the most diagnosed cancer worldwide.[25] […] From group 2, we selected cyclophosphamide, tamoxifen, and 5‐fluorouracil as pro‐apoptotic molecules.” for “S8).”
Figure 4 Apotracker Red detects dose‐dependent chemotherapeutic‐induced apoptosis in mouse and human breast cancer cell lines. Cells were plated with 1 μM CV, treated with increasing concentrations (0, 1, 3, 10, 30 and 100 μM) of selected drugs for 48 h, and stained with Apotracker Red (150 nM) before data acquisition. Drugs: tamoxifen (beige), cisplatin (black), 5‐fluorouracil (green), gemcitabine (pink) and cyclophosphamide (red). Data presented as mean±SEM of 3 independent experiments.
Edinburgh. Human peripheral blood neutrophils were isolated as previously described.[3] Briefly, whole blood was drawn into tubes containing anti -coagulant 3.6% sodium citrate (final concentration: 0.4% (w/v)) and centrifuged at 350 g for 20 min at r.t. with lowest acceleration and no brake. Platelet-rich plasma was rem oved, and leukocytes separated from erythrocytes by 0.6% dextran sedimentation in saline for 30 min at r.t. […]
were centrifuged (300 g, 5 min, r.t.), washed once with PBS before addition of 0.05% Trypsin, 0.02% ethylenediaminetetraacetic acid (EDTA) in Hank’s balanced salt solution (HBSS) and incubation at 37°C for 5 min. […] Histograms and mean fluorescence intensities of apoptotic cells were measured on a 5L LSR flow cytometer under the following excitation/emission filters: Apotracker Red (561/610 nm), Annexin V-AF647 (647 /670 nm).
Data were acquired using the FACS Diva software and analysed using the FlowJo X software. […]

[4] = test system: apoptotic cells (primary human neutrophils, Jurkat T cells); test: Divalent cation-independent staining, flow cytometry with EDTA; assay type: cell-based; settings: 2.5 mM EDTA, Apotracker Red 150 nM, Annexin V-AF647 25 nM
[5] = 8 cancer cell lines, 24 h treatment, flow cytometry

| Molecule | drug group by Apotracker Red (apoptosis) and CV (proliferation) staining [1, 5] | Apotracker Red staining in MDA-MB-231 cells, dose-dependency study [2] | other results |
| --- | --- | --- | --- |
| O=c1[nH]cc(F)c(=O)[nH]1 [5-fluorouracil] | induced apoptosis with little reduction of cell proliferation | weaker Apotracker Red‐staining | – |
| CC(C)C[C@H](NC(=O)[C@H](Cc1ccccc1)NC(=O)c1cnccn1)B(O)O [bortezomib] | induced apoptosis with little reduction of cell proliferation | – | effect on cell proliferation (CellTrace Violet) ([1]; 24 h treatment): very minor effects on cell proliferation |
| O=P1(N(CCCl)CCCl)NCCCO1 (stereo not shown) [cyclophosphamide] | – | weaker Apotracker Red‐staining | drug group by Apotracker Red (apoptosis) and CV (proliferation) staining [1]: induced apoptosis with little reduction of cell proliferation |
| C[C@@H]1C[C@H]2[C@@H]3CCC4=CC(=O)C=C[C@]4(C)[C@@]3(F)[C@@H](O)C[C@]2(C)[C@@]1(O)C(=O)CO [dexamethasone] | had no impact on proliferation or apoptosis | – | – |
| CC(=O)O[C@@]12CO[C@@H]1C[C@H](O)[C@@]1(C)C(=O)[C@H](O)C3=C(C)[C@@H](OC(=O)[C@H](O)[C@@H](NC(=O)OC(C)(C)C)c4ccccc4)C[C@@](O)([C@@H](OC(=O)c4ccccc4)[C@H]21)C3(C)C [docetaxel] | inhibited cell proliferation but showed little or no induction of apoptosis | – | – |
| Nc1ccn([C@@H]2O[C@H](CO)[C@@H](O)C2(F)F)c(=O)n1 [gemcitabine] | induced apoptosis and decreased cell proliferation | weaker Apotracker Red‐staining | – |
| CC(=O)O[C@H]1C(=O)[C@@]2(C)[C@H]([C@H](OC(=O)c3ccccc3)[C@]3(O)C[C@H](OC(=O)[C@H](O)[C@@H](NC(=O)c4ccccc4)c4ccccc4)C(C)=C1C3(C)C)[C@]1(OC(C)=O)CO[C@@H]1C[C@@H]2O [paclitaxel] | induced apoptosis with little reduction of cell proliferation | – | effect on cell proliferation (CellTrace Violet) ([1]; 24 h treatment): very minor effects on cell proliferation |
| CC/C(=C(\c1ccccc1)c1ccc(OCCN(C)C)cc1)c1ccccc1 [tamoxifen] | induced apoptosis with little reduction of cell proliferation | – | percentages of Apotracker Red staining across all breast cancer cells, dose-dependency study [3]: highest percentages of Apotracker Red staining |
| Cn1nnc2c(C(N)=O)ncn2c1=O [temozolomide] | inhibited cell proliferation but showed little or no induction of apoptosis | – | – |
| B1 | – | – | staining of apoptotic cells after chelation of divalent cations [4]: failed to bind |
